For eight compounds, IC50 results are on record in patent publication US9340590B2 (priority 2011, dated 2016).

What all share (assay): cell-based
For one experiment, the target named is hNav1.5 (Homo sapiens, UniProt Q14524). Conditions: IonWorks Quattro, use-dependent protocol, hNav1.5; read-out: IWQ Use Nav1.5. (In general: Patch clamp records ionic current or voltage across a cell membrane.)
The next experiment concerns the target hNav1.7 (Homo sapiens, UniProt Q15858). It is filed as cell-based. Conditions: IonWorks Quattro, use-dependent protocol, hNav1.7; read-out: IWQ Use Nav1.7.
The target of a further experiment is hNav1.3 (Homo sapiens, UniProt Q9NY46). The conditions noted are these: IonWorks Quattro, use-dependent protocol, hNav1.3; read-out: IWQ Use Nav1.3.
Chain of hNav1.3 (Q9NY46 whole entry, looked up): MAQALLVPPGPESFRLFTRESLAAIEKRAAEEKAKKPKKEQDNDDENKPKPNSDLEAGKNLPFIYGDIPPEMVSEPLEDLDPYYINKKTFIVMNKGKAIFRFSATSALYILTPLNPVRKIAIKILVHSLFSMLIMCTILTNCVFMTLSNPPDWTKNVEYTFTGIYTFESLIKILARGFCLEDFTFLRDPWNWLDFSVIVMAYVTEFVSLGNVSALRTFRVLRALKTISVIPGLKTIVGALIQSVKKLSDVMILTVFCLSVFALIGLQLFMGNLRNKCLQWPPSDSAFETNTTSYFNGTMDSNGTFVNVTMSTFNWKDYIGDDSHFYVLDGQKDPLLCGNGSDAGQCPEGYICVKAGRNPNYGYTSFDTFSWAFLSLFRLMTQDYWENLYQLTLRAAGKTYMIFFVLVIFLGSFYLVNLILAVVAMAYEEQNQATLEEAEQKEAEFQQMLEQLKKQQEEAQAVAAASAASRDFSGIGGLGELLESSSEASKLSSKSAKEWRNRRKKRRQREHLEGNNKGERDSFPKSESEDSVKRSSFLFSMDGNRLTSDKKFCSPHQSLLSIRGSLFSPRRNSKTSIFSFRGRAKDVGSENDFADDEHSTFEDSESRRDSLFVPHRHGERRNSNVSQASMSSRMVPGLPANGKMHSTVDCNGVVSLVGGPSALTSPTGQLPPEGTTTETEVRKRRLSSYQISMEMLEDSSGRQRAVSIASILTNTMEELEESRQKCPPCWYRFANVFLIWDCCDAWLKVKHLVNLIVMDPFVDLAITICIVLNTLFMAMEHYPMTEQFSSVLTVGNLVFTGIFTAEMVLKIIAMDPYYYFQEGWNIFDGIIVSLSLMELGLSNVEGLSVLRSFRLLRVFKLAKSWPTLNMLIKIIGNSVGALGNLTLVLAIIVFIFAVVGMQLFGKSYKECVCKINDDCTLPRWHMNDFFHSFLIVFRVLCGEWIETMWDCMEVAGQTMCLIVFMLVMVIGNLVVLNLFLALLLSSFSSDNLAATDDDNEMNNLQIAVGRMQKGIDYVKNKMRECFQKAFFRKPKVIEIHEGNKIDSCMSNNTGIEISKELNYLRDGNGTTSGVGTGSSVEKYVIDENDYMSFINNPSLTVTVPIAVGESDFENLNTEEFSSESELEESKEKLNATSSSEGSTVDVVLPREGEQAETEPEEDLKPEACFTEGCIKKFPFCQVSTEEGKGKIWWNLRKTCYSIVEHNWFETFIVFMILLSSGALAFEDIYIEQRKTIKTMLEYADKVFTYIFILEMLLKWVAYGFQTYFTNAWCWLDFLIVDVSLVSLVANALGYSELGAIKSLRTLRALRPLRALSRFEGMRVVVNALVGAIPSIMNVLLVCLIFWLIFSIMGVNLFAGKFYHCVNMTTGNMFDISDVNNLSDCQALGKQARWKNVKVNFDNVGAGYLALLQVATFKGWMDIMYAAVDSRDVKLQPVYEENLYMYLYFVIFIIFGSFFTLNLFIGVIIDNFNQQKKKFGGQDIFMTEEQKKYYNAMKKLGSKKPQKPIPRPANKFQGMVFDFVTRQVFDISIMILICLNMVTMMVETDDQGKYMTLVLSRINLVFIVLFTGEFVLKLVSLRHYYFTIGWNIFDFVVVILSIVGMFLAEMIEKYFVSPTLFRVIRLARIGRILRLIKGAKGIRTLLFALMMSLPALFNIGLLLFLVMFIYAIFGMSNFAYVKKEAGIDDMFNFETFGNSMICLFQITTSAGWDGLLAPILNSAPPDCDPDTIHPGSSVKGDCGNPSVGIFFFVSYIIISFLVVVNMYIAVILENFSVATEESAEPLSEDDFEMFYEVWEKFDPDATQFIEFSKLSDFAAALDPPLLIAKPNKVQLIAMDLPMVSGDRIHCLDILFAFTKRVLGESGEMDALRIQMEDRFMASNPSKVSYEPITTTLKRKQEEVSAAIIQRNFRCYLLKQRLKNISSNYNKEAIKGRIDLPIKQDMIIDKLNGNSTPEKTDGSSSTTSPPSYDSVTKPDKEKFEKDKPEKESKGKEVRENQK

Chain of hNav1.5 (Q14524 whole entry, looked up): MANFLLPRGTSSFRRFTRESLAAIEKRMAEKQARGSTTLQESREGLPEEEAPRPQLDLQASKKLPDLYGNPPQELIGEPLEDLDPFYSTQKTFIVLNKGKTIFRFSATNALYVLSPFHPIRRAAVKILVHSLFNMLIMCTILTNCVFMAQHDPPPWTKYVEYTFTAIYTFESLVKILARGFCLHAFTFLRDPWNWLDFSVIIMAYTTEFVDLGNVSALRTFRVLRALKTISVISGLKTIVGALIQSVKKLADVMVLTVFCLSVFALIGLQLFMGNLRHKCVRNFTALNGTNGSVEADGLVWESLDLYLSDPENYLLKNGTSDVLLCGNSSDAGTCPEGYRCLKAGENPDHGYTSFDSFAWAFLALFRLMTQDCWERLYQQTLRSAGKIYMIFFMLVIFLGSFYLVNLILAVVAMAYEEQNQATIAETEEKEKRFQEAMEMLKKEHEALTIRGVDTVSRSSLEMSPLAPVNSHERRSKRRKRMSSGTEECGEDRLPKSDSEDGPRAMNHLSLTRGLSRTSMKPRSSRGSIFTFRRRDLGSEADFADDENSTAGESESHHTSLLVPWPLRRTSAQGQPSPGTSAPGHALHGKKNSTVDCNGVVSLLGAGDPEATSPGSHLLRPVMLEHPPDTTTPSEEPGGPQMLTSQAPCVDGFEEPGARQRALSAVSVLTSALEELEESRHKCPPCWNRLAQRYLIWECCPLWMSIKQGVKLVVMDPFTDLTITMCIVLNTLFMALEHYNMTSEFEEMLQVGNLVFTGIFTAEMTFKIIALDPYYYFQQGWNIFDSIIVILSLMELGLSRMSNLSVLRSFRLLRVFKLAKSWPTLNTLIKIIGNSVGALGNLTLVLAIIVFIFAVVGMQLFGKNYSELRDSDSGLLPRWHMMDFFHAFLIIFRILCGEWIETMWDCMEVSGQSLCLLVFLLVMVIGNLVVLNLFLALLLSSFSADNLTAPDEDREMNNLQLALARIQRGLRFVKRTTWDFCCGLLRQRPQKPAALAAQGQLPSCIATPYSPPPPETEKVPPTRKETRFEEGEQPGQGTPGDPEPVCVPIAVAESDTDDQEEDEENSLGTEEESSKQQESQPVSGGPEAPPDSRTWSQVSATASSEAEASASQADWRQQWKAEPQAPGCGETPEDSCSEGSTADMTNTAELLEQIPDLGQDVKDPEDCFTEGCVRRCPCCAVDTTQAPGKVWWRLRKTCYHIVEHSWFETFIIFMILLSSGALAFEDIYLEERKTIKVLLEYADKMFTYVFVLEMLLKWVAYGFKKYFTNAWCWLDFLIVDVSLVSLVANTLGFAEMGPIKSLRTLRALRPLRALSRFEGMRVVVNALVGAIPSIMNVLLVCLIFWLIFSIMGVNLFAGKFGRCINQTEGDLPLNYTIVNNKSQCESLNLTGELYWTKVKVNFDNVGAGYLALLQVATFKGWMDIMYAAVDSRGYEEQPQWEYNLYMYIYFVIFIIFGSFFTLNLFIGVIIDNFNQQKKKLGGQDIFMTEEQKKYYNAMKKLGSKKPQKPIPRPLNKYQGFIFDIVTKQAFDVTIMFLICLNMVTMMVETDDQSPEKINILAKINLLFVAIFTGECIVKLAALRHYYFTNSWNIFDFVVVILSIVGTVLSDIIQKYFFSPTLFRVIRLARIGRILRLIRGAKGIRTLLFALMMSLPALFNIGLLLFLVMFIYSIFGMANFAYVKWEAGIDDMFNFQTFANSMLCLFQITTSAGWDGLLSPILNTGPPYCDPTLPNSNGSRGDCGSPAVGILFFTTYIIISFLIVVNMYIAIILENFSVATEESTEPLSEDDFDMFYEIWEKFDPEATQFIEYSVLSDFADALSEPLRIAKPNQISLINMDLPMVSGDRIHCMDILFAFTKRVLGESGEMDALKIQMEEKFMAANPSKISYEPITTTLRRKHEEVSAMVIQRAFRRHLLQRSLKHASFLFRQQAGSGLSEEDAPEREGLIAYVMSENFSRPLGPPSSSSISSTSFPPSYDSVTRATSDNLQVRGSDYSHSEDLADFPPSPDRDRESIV

For the compound `CC[C@H](C)[C@@H]1NC(=O)[C@@H]2CSSC[C@@H]3NC(=O)[C@H](C(C)C)NC(=O)[C@H](CC(C)C)NC(=O)[C@H](CC(N)=O)NC(=O)[C@@H]4CCCN4C(=O)[C@H](CCCNC(=N)N)NC(=O)[C@H](CSSC[C@H](NC(=O)[C@@H](N)CC(=O)O)C(=O)N[C@@H](CC(C)C)C(=O)NCC(=O)N[C@@H](Cc4ccc(Cl)c(Cl)c4)C(=O)N[C@@H](CC(C)C)C(=O)N[C@@H](CCCNC(=N)N)C(=O)N[C@@H](CCCCN)C(=O)N2)NC(=O)[C@H](CSSC[C@@H](C(=O)N[C@@H](CCCCN)C(=O)N[C@@H](Cc2ccc(O)cc2)C(=O)N[C@H](C(=O)N[C@@H](Cc2ccccc2)C(N)=O)C(C)C)NC(=O)[C@H](Cc2c[nH]c4ccccc24)NC(=O)[C@H](CCCCN)NC(=O)[C@H](Cc2c[nH]cn2)NC(=O)[C@H]([C@@H](C)O)NC(=O)[C@H](CCCNC(=N)N)NC(=O)[C@H](CO)NC3=O)NC(=O)[C@H](CCCCN)NC(=O)[C@H](CC(=O)O)NC(=O)[C@H](CC(N)=O)NC(=O)[C@H](CC(=O)O)NC(=O)[C@@H]2CCCN2C1=O` [compound 666], the IC50 was determined as 4.5 µM on hNav1.5, 0.029 µM on hNav1.7 and 0.016 µM on hNav1.3.

Regarding `CC[C@H](C)[C@@H]1NC(=O)[C@@H]2CSSC[C@@H]3NC(=O)[C@H](C(C)C)NC(=O)[C@H](CC(C)C)NC(=O)[C@H](CC(N)=O)NC(=O)[C@@H]4CCCN4C(=O)[C@H](CCCNC(=N)N)NC(=O)[C@H](CSSC[C@H](NC(=O)[C@@H](N)CC(=O)O)C(=O)N[C@@H](CC(C)C)C(=O)NCC(=O)N[C@@H](Cc4ccc(I)cc4)C(=O)N[C@@H](CC(C)C)C(=O)N[C@@H](CCCNC(=N)N)C(=O)N[C@@H](CCCCN)C(=O)N2)NC(=O)[C@H](CSSC[C@@H](C(=O)N[C@@H](CCCCN)C(=O)N[C@@H](Cc2ccc(O)cc2)C(=O)N[C@H](C(=O)N[C@@H](Cc2ccccc2)C(N)=O)C(C)C)NC(=O)[C@H](Cc2c[nH]c4ccccc24)NC(=O)[C@H](CCCCN)NC(=O)[C@H](Cc2c[nH]cn2)NC(=O)[C@H]([C@@H](C)O)NC(=O)[C@H](CCCNC(=N)N)NC(=O)[C@H](CO)NC3=O)NC(=O)[C@H](CCCCN)NC(=O)[C@H](CC(=O)O)NC(=O)[C@H](CC(N)=O)NC(=O)[C@H](CC(=O)O)NC(=O)[C@@H]2CCCN2C1=O` [compound 667], the results for the IC50 on hNav1.5, at hNav1.7 and on hNav1.3 were above 5 µM, 0.12 µM and 0.017 µM, respectively.

Turning to `CC[C@H](C)[C@@H]1NC(=O)[C@@H]2CSSC[C@@H]3NC(=O)[C@H](C(C)C)NC(=O)[C@H](CC(C)C)NC(=O)[C@H](CC(N)=O)NC(=O)[C@@H]4CCCN4C(=O)[C@H](CCCNC(=N)N)NC(=O)[C@H](CSSC[C@H](NC(=O)[C@@H](N)CC(=O)O)C(=O)N[C@@H](CC(C)C)C(=O)NCC(=O)N[C@@H](Cc4ccc(C(F)(F)F)cc4)C(=O)N[C@@H](CC(C)C)C(=O)N[C@@H](CCCNC(=N)N)C(=O)N[C@@H](CCCCN)C(=O)N2)NC(=O)[C@H](CSSC[C@@H](C(=O)N[C@@H](CCCCN)C(=O)N[C@@H](Cc2ccc(O)cc2)C(=O)N[C@H](C(=O)N[C@@H](Cc2ccccc2)C(N)=O)C(C)C)NC(=O)[C@H](Cc2c[nH]c4ccccc24)NC(=O)[C@H](CCCCN)NC(=O)[C@H](Cc2c[nH]cn2)NC(=O)[C@H]([C@@H](C)O)NC(=O)[C@H](CCCNC(=N)N)NC(=O)[C@H](CO)NC3=O)NC(=O)[C@H](CCCCN)NC(=O)[C@H](CC(=O)O)NC(=O)[C@H](CC(N)=O)NC(=O)[C@H](CC(=O)O)NC(=O)[C@@H]2CCCN2C1=O` [compound 668], the IC50 stood at 4.4 µM at hNav1.5, 0.18 µM at hNav1.7 and 0.011 µM at hNav1.3.

As for `CC[C@H](C)[C@@H]1NC(=O)[C@@H]2CSSC[C@@H]3NC(=O)[C@H](C(C)C)NC(=O)[C@H](CC(C)C)NC(=O)[C@H](CC(N)=O)NC(=O)[C@@H]4CCCN4C(=O)[C@H](CCCNC(=N)N)NC(=O)[C@H](CSSC[C@H](NC(=O)[C@@H](N)CC(=O)O)C(=O)N[C@@H](CC(C)C)C(=O)NCC(=O)N[C@@H](Cc4ccc(F)cc4)C(=O)N[C@@H](CC(C)C)C(=O)N[C@@H](CCCNC(=N)N)C(=O)N[C@@H](CCCCN)C(=O)N2)NC(=O)[C@H](CSSC[C@@H](C(=O)N[C@@H](CCCCN)C(=O)N[C@@H](Cc2ccc(O)cc2)C(=O)N[C@H](C(=O)N[C@@H](Cc2ccccc2)C(N)=O)C(C)C)NC(=O)[C@H](Cc2c[nH]c4ccccc24)NC(=O)[C@H](CCCCN)NC(=O)[C@H](Cc2c[nH]cn2)NC(=O)[C@H]([C@@H](C)O)NC(=O)[C@H](CCCNC(=N)N)NC(=O)[C@H](CO)NC3=O)NC(=O)[C@H](CCCCN)NC(=O)[C@H](CC(=O)O)NC(=O)[C@H](CC(N)=O)NC(=O)[C@H](CC(=O)O)NC(=O)[C@@H]2CCCN2C1=O` [compound 669], the figures for the IC50 at hNav1.5, on hNav1.7 and on hNav1.3 were above 5 µM, 0.091 µM and 0.037 µM, respectively.

For `CC[C@H](C)[C@@H]1NC(=O)[C@@H]2CSSC[C@@H]3NC(=O)[C@H](C(C)C)NC(=O)[C@H](CC(C)C)NC(=O)[C@H](CC(N)=O)NC(=O)[C@@H]4CCCN4C(=O)[C@H](CCCNC(=N)N)NC(=O)[C@H](CSSC[C@H](NC(=O)[C@@H](N)CC(=O)O)C(=O)N[C@@H](CC(C)C)C(=O)NCC(=O)N[C@@H](Cc4ccc(C)cc4)C(=O)N[C@@H](CC(C)C)C(=O)N[C@@H](CCCNC(=N)N)C(=O)N[C@@H](CCCCN)C(=O)N2)NC(=O)[C@H](CSSC[C@@H](C(=O)N[C@@H](CCCCN)C(=O)N[C@@H](Cc2ccc(O)cc2)C(=O)N[C@H](C(=O)N[C@@H](Cc2ccccc2)C(N)=O)C(C)C)NC(=O)[C@H](Cc2c[nH]c4ccccc24)NC(=O)[C@H](CCCCN)NC(=O)[C@H](Cc2c[nH]cn2)NC(=O)[C@H]([C@@H](C)O)NC(=O)[C@H](CCCNC(=N)N)NC(=O)[C@H](CO)NC3=O)NC(=O)[C@H](CCCCN)NC(=O)[C@H](CC(=O)O)NC(=O)[C@H](CC(N)=O)NC(=O)[C@H](CC(=O)O)NC(=O)[C@@H]2CCCN2C1=O` [compound 670], the IC50 was above 5 µM at hNav1.5, 0.19 µM at hNav1.7 and 0.055 µM on hNav1.3.

In the case of `CC[C@H](C)[C@@H]1NC(=O)[C@@H]2CSSC[C@@H]3NC(=O)[C@H](C(C)C)NC(=O)[C@H](CC(C)C)NC(=O)[C@H](CC(N)=O)NC(=O)[C@@H]4CCCN4C(=O)[C@H](CCCNC(=N)N)NC(=O)[C@H](CSSC[C@H](NC(=O)[C@@H](N)CC(=O)O)C(=O)N[C@@H](CC(C)C)C(=O)NCC(=O)N[C@@H](Cc4ccc(C(C)(C)C)cc4)C(=O)N[C@@H](CC(C)C)C(=O)N[C@@H](CCCNC(=N)N)C(=O)N[C@@H](CCCCN)C(=O)N2)NC(=O)[C@H](CSSC[C@@H](C(=O)N[C@@H](CCCCN)C(=O)N[C@@H](Cc2ccc(O)cc2)C(=O)N[C@H](C(=O)N[C@@H](Cc2ccccc2)C(N)=O)C(C)C)NC(=O)[C@H](Cc2c[nH]c4ccccc24)NC(=O)[C@H](CCCCN)NC(=O)[C@H](Cc2c[nH]cn2)NC(=O)[C@H]([C@@H](C)O)NC(=O)[C@H](CCCNC(=N)N)NC(=O)[C@H](CO)NC3=O)NC(=O)[C@H](CCCCN)NC(=O)[C@H](CC(=O)O)NC(=O)[C@H](CC(N)=O)NC(=O)[C@H](CC(=O)O)NC(=O)[C@@H]2CCCN2C1=O` [compound 671], the IC50 on hNav1.5 is above 5 µM; on hNav1.7 it was 0.14 µM; at hNav1.3 it was 0.05 µM.

Regarding `CC[C@H](C)[C@@H]1NC(=O)[C@@H]2CSSC[C@@H]3NC(=O)[C@H](C(C)C)NC(=O)[C@H](CC(C)C)NC(=O)[C@H](CC(N)=O)NC(=O)[C@@H]4CCCN4C(=O)[C@H](CCCNC(=N)N)NC(=O)[C@H](CSSC[C@H](NC(=O)[C@@H](N)CC(=O)O)C(=O)N[C@@H](CC(C)C)C(=O)NCC(=O)N(C)[C@@H](C(C)C)C(=O)N[C@@H](CC(C)C)C(=O)N[C@@H](CCCNC(=N)N)C(=O)N[C@@H](CCCCN)C(=O)N2)NC(=O)[C@H](CSSC[C@@H](C(=O)N[C@@H](CCCCN)C(=O)N[C@@H](Cc2ccc(O)cc2)C(=O)N[C@H](C(=O)N[C@@H](Cc2ccccc2)C(N)=O)C(C)C)NC(=O)[C@H](Cc2c[nH]c4ccccc24)NC(=O)[C@H](CCCCN)NC(=O)[C@H](Cc2c[nH]cn2)NC(=O)[C@H]([C@@H](C)O)NC(=O)[C@H](CCCNC(=N)N)NC(=O)[C@H](CO)NC3=O)NC(=O)[C@H](CCCCN)NC(=O)[C@H](CC(=O)O)NC(=O)[C@H](CC(N)=O)NC(=O)[C@H](CC(=O)O)NC(=O)[C@@H]2CCCN2C1=O` [compound 672], the IC50 at hNav1.5 is above 5 µM; on hNav1.7, 0.47 µM; on hNav1.3, 0.75 µM.

Consider `CC[C@H](C)[C@@H]1NC(=O)[C@@H]2CSSC[C@@H]3NC(=O)[C@H](C(C)C)NC(=O)[C@H](CC(C)C)NC(=O)[C@H](CC(N)=O)NC(=O)[C@@H]4CCCN4C(=O)[C@H](CCCNC(=N)N)NC(=O)[C@H](CSSC[C@H](NC(=O)[C@@H](N)CC(=O)O)C(=O)N[C@@H](CC(C)C)C(=O)NCC(=O)N(C)[C@@H](CC(C)C)C(=O)N[C@@H](CC(C)C)C(=O)N[C@@H](CCCNC(=N)N)C(=O)N[C@@H](CCCCN)C(=O)N2)NC(=O)[C@H](CSSC[C@@H](C(=O)N[C@@H](CCCCN)C(=O)N[C@@H](Cc2ccc(O)cc2)C(=O)N[C@H](C(=O)N[C@@H](Cc2ccccc2)C(N)=O)C(C)C)NC(=O)[C@H](Cc2c[nH]c4ccccc24)NC(=O)[C@H](CCCCN)NC(=O)[C@H](Cc2c[nH]cn2)NC(=O)[C@H]([C@@H](C)O)NC(=O)[C@H](CCCNC(=N)N)NC(=O)[C@H](CO)NC3=O)NC(=O)[C@H](CCCCN)NC(=O)[C@H](CC(=O)O)NC(=O)[C@H](CC(N)=O)NC(=O)[C@H](CC(=O)O)NC(=O)[C@@H]2CCCN2C1=O` [compound 673], for which the IC50 on hNav1.5 was above 5 µM; at hNav1.7 it was 0.17 µM; at hNav1.3, 0.69 µM.
